Laboratory results reported in BigSolDB 2.1.

Oc1c(Cl)cc(Cl)c2cccnc12
solubility (mole fraction)
Details | 293.15 K | 298.15 K | 303.15 K | 308.15 K | 313.15 K | 318.15 K | 323.15 K | 328.15 K | 333.15 K
in 1,4-dioxane | 0.00523 | 0.0062 | 0.00736 | 0.0089 | 0.0106 | 0.0123 | 0.0146 | 0.017 | 0.0193
in DMF | 0.0132 | 0.016 | 0.0194 | 0.024 | 0.0294 | 0.0347 | 0.0408 | 0.0478 | 0.0555
in DMSO | 0.00296 | 0.00378 | 0.0048 | 0.00633 | 0.00793 | 0.00997 | 0.0123 | 0.0154 | 0.0188
in NMP | 0.00576 | 0.00683 | 0.00823 | 0.00963 | 0.0113 | 0.0137 | 0.0162 | 0.0188 | 0.022
in water | 1.02e-06 | 1.48e-06 | 2.03e-06 | 2.82e-06 | 3.82e-06 | 5e-06 | 6.86e-06 | 8.91e-06 | 1.15e-05
